Where two headings read alike, the source gives them in different places.
Legend:
[1] = molecular target: human α1β1γ2 GABAA receptor (Homo sapiens, UniProt P14867+P18505+P18507, DEL377-384, form not given); experiment: Whole-cell patch clamp, HEK293 cells expressing α1β1γ2 GABAARs; format: cell-based
[2] = molecular target: human α6β2γ2 GABAA receptor (Homo sapiens, UniProt P18507+P47870+Q16445, DEL377-384, form not given); experiment: Whole-cell patch clamp, HEK293 cells expressing α6β2γ2 GABAARs; format: cell-based
[3] = molecular target: T1, human α1β2 GABAA receptor (Homo sapiens, UniProt P14867+P47870); format: cell-based
T1 sequence (P14867 28-456): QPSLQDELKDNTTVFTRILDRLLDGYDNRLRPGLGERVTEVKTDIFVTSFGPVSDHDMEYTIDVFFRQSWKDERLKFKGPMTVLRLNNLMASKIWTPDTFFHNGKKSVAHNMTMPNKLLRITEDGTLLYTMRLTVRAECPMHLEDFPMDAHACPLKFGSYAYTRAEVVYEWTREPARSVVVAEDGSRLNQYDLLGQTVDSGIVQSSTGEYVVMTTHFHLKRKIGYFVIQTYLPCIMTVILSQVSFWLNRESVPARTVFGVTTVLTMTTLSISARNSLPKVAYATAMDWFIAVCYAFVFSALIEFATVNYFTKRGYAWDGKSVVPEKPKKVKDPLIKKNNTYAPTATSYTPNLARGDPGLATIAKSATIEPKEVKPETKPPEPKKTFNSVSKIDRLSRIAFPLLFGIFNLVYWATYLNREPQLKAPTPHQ
T1 sequence (P47870 25-512 limits assumed): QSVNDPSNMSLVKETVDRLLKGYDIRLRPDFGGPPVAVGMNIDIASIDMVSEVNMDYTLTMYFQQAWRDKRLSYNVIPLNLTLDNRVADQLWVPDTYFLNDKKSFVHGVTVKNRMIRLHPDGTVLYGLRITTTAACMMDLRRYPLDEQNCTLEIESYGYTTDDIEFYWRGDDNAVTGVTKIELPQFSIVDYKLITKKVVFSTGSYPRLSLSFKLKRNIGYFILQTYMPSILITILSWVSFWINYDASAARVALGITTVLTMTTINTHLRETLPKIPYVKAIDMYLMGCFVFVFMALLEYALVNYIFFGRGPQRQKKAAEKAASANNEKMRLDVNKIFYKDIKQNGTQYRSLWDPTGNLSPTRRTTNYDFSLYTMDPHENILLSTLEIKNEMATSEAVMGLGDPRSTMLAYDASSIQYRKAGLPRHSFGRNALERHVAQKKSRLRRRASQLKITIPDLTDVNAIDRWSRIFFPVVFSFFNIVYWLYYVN

[4] = molecular target: human α1β2γ2 GABAA receptor (Homo sapiens, UniProt P14867+P18507+P47870, DEL377-384, form not given); format: cell-based; conditions: for Enhancement of GABA current by carisoprodol, % of control: 100 µM CSP
[5] = molecular target: human α2β2γ2 GABAA receptor (Homo sapiens, UniProt P18507+P47869+P47870, DEL377-384, form not given); experiment: Whole-cell patch clamp, HEK293 cells expressing α2β2γ2 GABAARs; format: cell-based
[6] = molecular target: human α3β2γ2 GABAA receptor (Homo sapiens, UniProt P18507+P34903+P47870, DEL377-384, form not given); experiment: Whole-cell patch clamp, HEK293 cells expressing α3β2γ2 GABAARs; format: cell-based
[7] = test system: αxβ2γ2 GABAA receptors, where x = α subunit 1–6; experiment: Whole-cell patch clamp, direct gating across αxβ2γ2 GABAA receptors; format: cell-based, human; conditions: range over α1–α6 β2γ2 receptors
[8] = molecular target: T2, rat α1β3δ GABAA receptor (Rattus norvegicus, UniProt P18506+P62813+P63079); conditions: for Potentiation of saturating (maximal) GABA currents: sub-gating concentration of drug
T2 sequence (P62813 28-455): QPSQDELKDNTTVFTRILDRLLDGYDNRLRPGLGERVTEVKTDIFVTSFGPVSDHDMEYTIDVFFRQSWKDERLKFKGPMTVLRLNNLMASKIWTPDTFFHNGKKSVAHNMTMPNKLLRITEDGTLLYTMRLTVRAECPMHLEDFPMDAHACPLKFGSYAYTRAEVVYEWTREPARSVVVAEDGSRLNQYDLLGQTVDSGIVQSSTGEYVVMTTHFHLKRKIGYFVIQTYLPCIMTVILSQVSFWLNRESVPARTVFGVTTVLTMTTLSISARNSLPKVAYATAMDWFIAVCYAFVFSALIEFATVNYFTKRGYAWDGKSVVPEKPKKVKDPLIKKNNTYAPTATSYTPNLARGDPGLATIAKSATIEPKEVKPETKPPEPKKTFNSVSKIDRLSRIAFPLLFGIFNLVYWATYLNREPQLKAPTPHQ
T2 sequence (P63079 26-473): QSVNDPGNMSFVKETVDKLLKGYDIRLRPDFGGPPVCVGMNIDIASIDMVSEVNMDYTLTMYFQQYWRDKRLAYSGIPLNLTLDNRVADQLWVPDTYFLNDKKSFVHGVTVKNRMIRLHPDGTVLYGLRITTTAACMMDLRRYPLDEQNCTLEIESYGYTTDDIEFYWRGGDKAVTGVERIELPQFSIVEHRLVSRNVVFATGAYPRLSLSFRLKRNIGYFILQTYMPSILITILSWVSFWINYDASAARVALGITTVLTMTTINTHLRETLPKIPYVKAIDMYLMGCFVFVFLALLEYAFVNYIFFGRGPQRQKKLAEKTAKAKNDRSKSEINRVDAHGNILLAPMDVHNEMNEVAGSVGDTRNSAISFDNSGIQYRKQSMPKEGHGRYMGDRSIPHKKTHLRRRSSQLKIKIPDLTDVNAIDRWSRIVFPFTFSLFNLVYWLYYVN
T2 sequence (P18506 17-449 limits assumed): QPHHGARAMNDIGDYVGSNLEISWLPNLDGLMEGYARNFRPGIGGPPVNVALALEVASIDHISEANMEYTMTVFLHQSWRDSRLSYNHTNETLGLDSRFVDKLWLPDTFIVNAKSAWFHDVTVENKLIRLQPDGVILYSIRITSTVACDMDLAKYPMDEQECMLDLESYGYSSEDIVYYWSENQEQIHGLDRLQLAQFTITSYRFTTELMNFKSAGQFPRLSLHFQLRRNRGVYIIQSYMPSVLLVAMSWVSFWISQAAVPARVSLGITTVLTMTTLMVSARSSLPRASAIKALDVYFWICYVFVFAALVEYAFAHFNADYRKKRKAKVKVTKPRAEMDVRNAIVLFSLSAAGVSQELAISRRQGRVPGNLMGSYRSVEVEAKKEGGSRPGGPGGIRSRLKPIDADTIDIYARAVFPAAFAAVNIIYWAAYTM

[9] = molecular target: human α4β2γ2 GABAA receptor (Homo sapiens, UniProt P18507+P47870+P48169, DEL377-384, form not given); experiment: Whole-cell patch clamp, HEK293 cells expressing α4β2γ2 GABAARs; format: cell-based
[10] = molecular target: human α5β2γ2 GABAA receptor (Homo sapiens, UniProt P18507+P31644+P47870, DEL377-384, form not given); experiment: Whole-cell patch clamp, HEK293 cells expressing α5β2γ2 GABAARs; format: cell-based
[11] = molecular target: T2, rat α1β3δ GABAA receptor; experiment: cell-based
[12] = single dose of 350 mg; ref Littrell et al., 1993; cited from earlier work
[13] = molecular target: rat α1β2 GABAA receptor (Rattus norvegicus, UniProt P62813+P63138); experiment: Whole-cell patch clamp, HEK293 cells expressing rat α1β2 GABAARs; format: cell-based
rat α1β2 GABAA receptor, sequence (P62813 28-455): as the sequence (P62813 28-455) above
rat α1β2 GABAA receptor, sequence (P63138 25-474 limits assumed): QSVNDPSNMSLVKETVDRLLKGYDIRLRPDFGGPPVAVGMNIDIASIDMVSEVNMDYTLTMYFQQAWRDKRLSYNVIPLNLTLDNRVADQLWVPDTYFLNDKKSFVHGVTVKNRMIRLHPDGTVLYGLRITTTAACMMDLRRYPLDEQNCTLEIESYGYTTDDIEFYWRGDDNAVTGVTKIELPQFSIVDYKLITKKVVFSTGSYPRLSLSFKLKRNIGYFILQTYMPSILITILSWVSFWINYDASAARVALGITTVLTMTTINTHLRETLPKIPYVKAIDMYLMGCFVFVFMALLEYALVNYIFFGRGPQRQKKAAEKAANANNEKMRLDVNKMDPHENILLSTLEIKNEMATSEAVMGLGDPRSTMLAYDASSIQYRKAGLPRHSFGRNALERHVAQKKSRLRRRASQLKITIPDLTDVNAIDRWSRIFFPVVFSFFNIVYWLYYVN

[14] = molecular target: T3, rat α1β3 GABAA receptor (Rattus norvegicus, UniProt P62813+P63079)
T3 sequence (P62813 28-455): as the sequence (P62813 28-455) above
T3 sequence (P63079 26-473): as the sequence (P63079 26-473) above

[15] = molecular target: rat α1β3γ2 GABAA receptor (Rattus norvegicus, UniProt P18508+P62813+P63079); experiment: Whole-cell patch clamp, HEK293 cells expressing rat α1β3γ2 GABAARs; format: cell-based
[16] = molecular target: T3, rat α1β3 GABAA receptor; experiment: cell-based
[17] = molecular target: rat α4β3δ GABAA receptor (Rattus norvegicus, UniProt P18506+P28471+P63079); experiment: Whole-cell patch clamp, HEK293 cells expressing extrasynaptic rat α4β3δ GABAARs; format: cell-based; conditions: for Potentiation of saturating (maximal) GABA currents: sub-gating concentration of drug
rat α4β3δ GABAA receptor, sequence (P28471 36-552): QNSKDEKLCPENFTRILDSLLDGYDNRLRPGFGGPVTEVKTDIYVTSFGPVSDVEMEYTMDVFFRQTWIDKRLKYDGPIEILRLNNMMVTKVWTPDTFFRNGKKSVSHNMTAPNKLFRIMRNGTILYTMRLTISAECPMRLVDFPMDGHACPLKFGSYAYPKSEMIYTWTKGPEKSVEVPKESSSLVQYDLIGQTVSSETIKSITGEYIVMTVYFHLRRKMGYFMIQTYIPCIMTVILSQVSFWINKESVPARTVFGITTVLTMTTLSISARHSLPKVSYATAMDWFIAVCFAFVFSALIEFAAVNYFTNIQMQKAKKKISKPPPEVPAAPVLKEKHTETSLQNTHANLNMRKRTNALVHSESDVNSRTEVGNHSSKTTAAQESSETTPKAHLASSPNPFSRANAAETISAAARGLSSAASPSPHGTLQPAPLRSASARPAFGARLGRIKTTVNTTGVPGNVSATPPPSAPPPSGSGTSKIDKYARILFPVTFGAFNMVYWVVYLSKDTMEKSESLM
rat α4β3δ GABAA receptor, sequence (P63079 26-473): as the sequence (P63079 26-473) above
rat α4β3δ GABAA receptor, sequence (P18506 17-449 limits assumed): as the sequence (P18506 17-449 limits assumed) above

[18] = case reports; ref McIntyre et al., 2012; Robertson and Marinetti, 2003; cited from earlier work
[19] = maximum current by carisoprodol plus GABA (EC20) normalized to GABA (EC20) currents
[20] = normalized to maximum GABA gated currents
[21] = read-out: Carisoprodol direct gating EC50, relative to maximum current elicited by carisoprodol
[22] = read-out: EC50 for allosteric modulation by carisoprodol, in the presence of GABA (EC20)

In the case of `NCCCC(=O)O` [GABA, γ-aminobutyric acid], the “GABA Hill Coefficient” value [1] is reported as 1.17 ± 0.09, the “GABA Hill Coefficient” value [2] is reported as 1.02 ± 0.12 and the “GABA Hill Coefficient” value ([3]; α1β2) is reported as 1.32 ± 0.11. The “GABA Hill Coefficient” value [4] was 1.32 ± 0.03, the “GABA current amplitude at +60 mV as % of that recorded at −60 mV (outward rectification)” value ([4]; lower concentrations of GABA) was 110% and the “GABA Hill Coefficient” value [5] was 1.09 ± 0.12. The “GABA Hill Coefficient” value [6] was 1.04 ± 0.06.

In the case of `CCCC(C)(COC(N)=O)COC(=O)NC(C)C` (stereo not shown) [carisoprodol, Carisoprodol], the “Efficacy of allosteric modulation by carisoprodol” value (shortened to “Efficacy of allosteric modulation”) [1, 19] is reported as 225.6 ± 14.6 %, the “Carisoprodol direct gating Efficacy” value [1, 20] is reported as 69.7 ± 5.4 % and the EC50 [1, 21] is reported as 729 ± 58.1 µM. For the same molecule, the EC50 [1, 22] was 33.1 ± 4 µM, the “Maximal carisoprodol-gated current, efficacy as % of maximal GABA-gated current” value [7] was 13–43% and the “Efficacy of allosteric modulation” value [2, 19] was 232.6 ± 26.9 %. For the same molecule, the “Carisoprodol direct gating Efficacy” value [2, 20] was 36.8 ± 4.7%, the EC50 [2, 21] was 294 ± 28.1 µM and the EC50 [2, 22] was 79.8 ± 13.8 µM. The EC50 ([3]; Carisoprodol direct gating EC50, α1β2, relative to maximum current elicited by carisoprodol) was 679 ± 24.3 µM, the EC50 ([3]; EC50 for allosteric modulation by carisoprodol, α1β2, in the presence of GABA (EC20)) was 87.4 ± 16.4 µM and the “Efficacy of allosteric modulation” value ([3]; α1β2, maximum current by carisoprodol plus GABA (EC20) normalized to GABA (EC20) currents) was 346.7 ± 67.6%. For the same molecule, the “Carisoprodol direct gating Efficacy” value ([3]; α1β2, normalized to maximum GABA gated currents) was 45.9 ±3%, the “CSP modulation Efficacy” value ([8]; rat α1β3δ, maximum current by carisoprodol plus GABA (EC20) normalized to GABA (EC20) currents) was 241.5 ± 25.1 and the “CSP gating Efficacy” value ([8]; rat α1β3δ, normalized to maximum GABA gated currents) was 128.7 ± 12.3. For the same molecule, the “Carisoprodol direct gating efficacy relative to THIP” value ([8]; α1β3δ) was “roughly 90%”, the “Potentiation of saturating (maximal) GABA currents” value (from here on “Potentiation of saturating”) ([8]; α1β3δ) was “significant potentiation of maximal GABA currents” and the “Efficacy of allosteric modulation” value [9, 19] was 240.0 ± 16.4 %. For the same molecule, the “Carisoprodol direct gating Efficacy” value [9, 20] was 37.3 ± 5.0%, the EC50 [9, 21] was 758 ± 61.3 µM and the EC50 [9, 22] was 72.3 ± 10.1 µM. For the same molecule, the “Efficacy of allosteric modulation” value [10, 19] was 247.6 ± 23.0 %, the “Carisoprodol direct gating Efficacy” value [10, 20] was 37.7 ± 3.5% and the EC50 [10, 21] was 835 ± 60.3 µM. The EC50 [10, 22] was 90.8 ± 14.7 µM, the EC50 ([11]; CSP gating EC50, rat α1β3δ, relative to maximum current elicited by carisoprodol) was 801 ± 24.2 µM and the EC50 ([11]; CSP modulation EC50, rat α1β3δ, in the presence of GABA (EC20)) was 109 ± 11.4 µM. For the same molecule, the “Onset of effects after administration” value [12] was at most 30 min, the Plasma concentrations [12] was 4000 to 7000 ng/mL and the “Time in which plasma concentrations are reached” value [12] was 2 to 4 h. For the same molecule, the “Enhancement of GABA current by carisoprodol, % of control” value ([4]; +60 mV) was 204.8 ± 5.3%, the “Enhancement of GABA current by carisoprodol, % of control” value ([4]; −60 mV) was 285.3 ± 17.7% and the “Mean carisoprodol direct gating effect, % of maximal GABA-gated current” value ([4]; 100 µM carisoprodol) was 2.8%. The “Voltage-dependence of direct gating effect” value ([4]; 1 mM CSP, −60 mV vs +60 mV) was “not impacted by membrane voltage”, the “Efficacy of allosteric modulation” value [4, 19] was 474.7 ± 53.5% and the EC50 [4, 21] was 686 ± 30.4 µM. For the same molecule, the EC50 [4, 22] was 88.2 ± 19.9 µM, the EC50 ([13]; CSP gating EC50, rat α1β2, relative to maximum current elicited by carisoprodol) was 670 ± 22.2 µM and the EC50 ([13]; CSP modulation EC50, rat α1β2, in the presence of GABA (EC20)) was 120 ± 10.5 µM. The “CSP modulation Efficacy” value ([13]; rat α1β2, maximum current by carisoprodol plus GABA (EC20) normalized to GABA (EC20) currents) was 442.2 ± 27.7, the “CSP gating Efficacy” value ([13]; rat α1β2, normalized to maximum GABA gated currents) was 44.6 ± 4.85 and the “CSP modulation Efficacy” value ([14]; rat α1β3, maximum current by carisoprodol plus GABA (EC20) normalized to GABA (EC20) currents) was 234.5 ± 18.9. For the same molecule, the “CSP gating Efficacy” value ([14]; rat α1β3, normalized to maximum GABA gated currents) was 50.8 ± 6.24, the “Potentiation of saturating” value ([14]; α1β3, sub-gating concentration of drug) was “not seen” and the EC50 ([15]; CSP modulation EC50, rat α1β3γ2, in the presence of GABA (EC20)) was 131 ± 12.4 µM. For the same molecule, the “CSP gating Efficacy” value ([15]; rat α1β3γ2, normalized to maximum GABA gated currents) was 44.8 ± 3.23, the “Potentiation of saturating” value ([15]; α1β3γ2, sub-gating concentration of drug) was “not seen” and the “Efficacy of allosteric modulation” value [5, 19] was 198.5 ± 9.5 %. The “Carisoprodol direct gating Efficacy” value [5, 20] was 30.1 ± 1.4%, the EC50 [5, 21] was 829 ± 50.2 µM and the EC50 [5, 22] was 64.9 ± 19.1 µM. For the same molecule, the EC50 ([16]; CSP gating EC50, rat α1β3, relative to maximum current elicited by carisoprodol) was 606 ± 25.3 µM, the EC50 ([16]; CSP modulation EC50, rat α1β3, in the presence of GABA (EC20)) was 135 ± 12.8 µM and the “Efficacy of allosteric modulation” value [6, 19] was 242.7 ± 35.1 %. The “Carisoprodol direct gating Efficacy” value [6, 20] was 13.4 ± 1.4 %, the EC50 [6, 21] was 1870 ± 92.4 µM and the EC50 [6, 22] was 63.7 ± 16.5 µM. The “Potentiation of saturating” value [17] was “significant potentiation of maximal GABA currents” and the “Fatal blood or plasma concentration” value [18] was at least 140 µM.

With `CCCC(C)C1(CC)C(=O)NC(=O)NC1=O` (stereo not shown) [pentobarbital] the “Potentiation of saturating” value ([8]; α1β3δ) was “potentiation of saturating GABA currents” and the “Potentiation of saturating” value [17] was “potentiation of saturating GABA currents”.

In the case of `Oc1noc2c1CCNC2` [THIP, 4,5,6,7-tetrahydroisoxazolo(5,4-c)pyridin-3-ol], the “THIP-gated currents, % of the amplitude of currents obtained with saturating GABA” value ([8]; α1β3δ) is reported as 135.6 ± 7.2% and the “THIP-gated currents, % of the amplitude of currents obtained with saturating GABA” value [17] is reported as 153.4 ± 10.7%.
